Tests used:
C57BL/6J mice = test: Repeated nitroglycerin (NTG) administration-induced behavioral sensitization: facial mechanical thresholds (von Frey), hyperalgesic priming, facial pain score; format: in vivo, mouse; conditions: female C57BL/6J
Experimental: Repeated nitroglycerin (NTG) administration-induced behavioral sensitization: To model chronic migraine headache, mice received repetitive intraperitoneal (i.p.) injections of nitric oxide (NO) donor NTG (10 mg/kg and 10 ml/kg in saline with 1% propylene glycol) once every 2 days for 5 times as described previously. The control mice received vehicle (saline with 1% propylene glycol, 10 ml/kg) injections every 2 days. Facial mechanical thresholds were measured at baseline and two days after each injection (before the next treatment). After the facial mechanical threshold returned to the baseline level, mice received daily i.p. injections of low-dose NTG (0.1 mg/kg). Facial mechanical thresholds were measured every 2 days to assess hyperalgesic priming.
The hair on the mouse forehead (above and between the eyes) was shaved the day before testing. […] A positive response was determined by the following criteria as previously described: mouse vigorously stroked its face with the forepaw, head withdrawal from the stimulus, or head shaking. […]
Facial pain score—aversiveness to facial mechanical stimuli: To measure the aversiveness to facial mechanical stimuli, the responses of mice to individual von Frey filaments were scored based on the most aversive behavior they display: 0) no responses; 1) detection: eye squinting, facial skin crinkling and/or a small head shaking; 2) withdrawal: head withdrawal from the filament and/or forepaw stroking of face once; 3) vigorous forepaw stroking of face 2 or more times; and 4) vigorous head shaking and/or attacking the filament.
For C57BL/6J mice, responses were measured to 0.04 gram (g), 0.07 g and 0.16 g von Frey filaments (3 applications each in ascending order). […]
Mice received intraperitoneal (i.p.) injections of NTG (10 mg/kg) or vehicle (saline with 1% propylene glycol, 10 ml/kg) once every 2 days for 5 times as described previously. Facial mechanical thresholds were measured at baseline and two days after each injection. […]

mice = conditions: intrathecal, 3 μg; cited from earlier work

## Cc1ccc2c(c1)C1(CCN(CCc3nc(-c4ccccc4)oc3C)CC1)OC(=O)N2 [RS504393]
C57BL/6J mice; 3 μg in 10 μl under periorbital skin, 30 minutes before and 24 hours post-NTG
  NTG-induced acute or persistent facial skin hypersensitivity: did not reduce NTG-induced acute or persistent facial skin hypersensitivity
C57BL/6J mice; 3 mg/kg i.p., 8 daily injections started after established hypersensitivity, day 5-11
  facial mechanical threshold (NTG-induced persistent facial skin hypersensitivity): returned to basal level after 2 days of RS504393 treatment
C57BL/6J mice; 3 mg/kg i.p., 8 daily injections, low-dose NTG day 20-28
  hyperalgesic priming (low-dose NTG-induced facial skin hypersensitivity): low-dose NTG injections still produced robust facial skin hypersensitivity
mice
  tibial fracture/cast immobilization-induced mechanical allodynia: significantly attenuated tibial fracture/cast immobilization-induced mechanical allodynia

Source: US20230357419A1, “METHODS FOR TREATING OR […] DISORDERS” (priority 2022, published 2023)
